Measured values published in patent publication US20230265435A1, “COMPOSITION COMPRISING OSTEOPONTIN INHIBITOR AS ACTIVE INGREDIENT FOR PREVENTION, ALLEVIATION, OR TREATMENT OF NEURODEGENERATIVE DISEASE” (THE CATHOLIC UNIVERSITY OF KOREA INDUSTRY-ACADEMIC …, priority 2020, published 2023).

Tested on: neural stem cells
Assay: Amyloid beta toxicity, MTT assay, OPN antagonist treatment
Assay type: cell-based
Experimental: Next, to confirm the function of the OPN protein for amyloid beta neurotoxicity, the inventors confirmed the level of amyloid beta toxicity according to the treatment of an OPN antagonist or OPN siRNA using neuronal cells.
Specifically, approximately 5×10^4 neural stem cells were seeded in a 24-well plate, and cultured at 37° C. in a CO2 incubator for 24 hours. The medium in the cell-containing plate was replaced with an antibiotic-free, 0.1% serum-containing medium, treated with 0.5 μM levocetirizine (Sigma-Aldrich, L7795, OPN antagonist), and after 6 to 7 hours, the cells were further treated with 3 μM amyloid beta, and after 48 hours of culture, cell viability was confirmed through an MTT assay.

Substance | amyloid beta toxicity (0.5 μM levocetirizine with 3 μM amyloid beta, 48 hours) | cell viability (neural stem cells treated with 3 μM amyloid beta alone)
levocetirizine | greatly decreased | 
amyloid beta |  | approximately 60%
